# In ChEMBL document CHEMBL1127927, “Cycloheptimidazole based angiotensin II receptor antagonists. 4,5,6,7-tetrahydro-8-carboxymethylidene cycloheptimidazoles” (Bioorg Med Chem Lett, 1994):
# Biological target: T1, Angiotensin II receptor (AT-1) type-1 (Rattus norvegicus, UniProt P29089+P25095)
# T1 sequence (P29089 whole entry): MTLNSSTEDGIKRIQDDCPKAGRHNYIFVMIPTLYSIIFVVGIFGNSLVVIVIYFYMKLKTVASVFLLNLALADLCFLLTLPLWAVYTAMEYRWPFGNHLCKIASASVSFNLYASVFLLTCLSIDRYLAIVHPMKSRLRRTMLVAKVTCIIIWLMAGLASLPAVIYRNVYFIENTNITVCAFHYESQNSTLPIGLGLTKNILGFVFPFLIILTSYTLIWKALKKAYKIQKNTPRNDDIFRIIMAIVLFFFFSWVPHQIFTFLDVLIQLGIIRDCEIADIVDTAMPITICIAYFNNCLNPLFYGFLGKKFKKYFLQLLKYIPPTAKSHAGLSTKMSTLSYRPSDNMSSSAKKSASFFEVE
# T1 sequence (P25095 whole entry): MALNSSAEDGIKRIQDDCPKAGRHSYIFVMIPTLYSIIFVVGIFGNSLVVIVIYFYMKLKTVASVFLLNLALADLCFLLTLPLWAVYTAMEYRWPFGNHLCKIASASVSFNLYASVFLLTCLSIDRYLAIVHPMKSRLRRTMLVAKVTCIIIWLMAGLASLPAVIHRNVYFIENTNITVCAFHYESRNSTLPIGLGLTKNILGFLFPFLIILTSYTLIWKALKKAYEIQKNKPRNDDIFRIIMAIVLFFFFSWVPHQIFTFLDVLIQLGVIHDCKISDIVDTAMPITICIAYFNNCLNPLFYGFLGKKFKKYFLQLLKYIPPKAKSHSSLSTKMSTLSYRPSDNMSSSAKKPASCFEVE
# Assay: Inhibition of binding of [125I]- Sar,Ileu-angiotensin to Angiotensin II receptor, type 1 in the radioligand binding assay using rat liver membrane preparations
smiles,measurement,value
CCc1nc2c(n1Cc1ccc(-c3ccccc3-c3nn[nH]n3)cc1)/C(=C/C(=O)O)CCCC2,IC50,5.45 nM
